The test system of data set [1] is DEN-induced liver cancer mouse model (male). In words: DEN-induced liver cancer mouse model: liver weight, plasma AFP, tumor number, H&E. The data set is classed as in vivo, C57BL/6 mouse. As to the method:
The mouse used in the experiment are 7-week old male and female C57BL/6 mouse. The mouse is obtained from Orient Bio (ORIENT Bio, Gyeonggi-do Province, Korea) and is adapted in an environment that the contrast is controlled at a temperature of 22±2° C. and a humidity of 55 to 60% in 12-hour increments, and a standard diet is provided for 1 week. All animal experiments are performed in accordance with the regulations of the Laboratory Animal Ethics Committee of Sungshin Women's University. After adapting a male mouse born from the mating of the adapted mouse in the same environment for 2 weeks, a DEN-induced liver cancer mouse model is generated by a method of intraperitoneally administering a liver cancer-causing substance, diethylnitrosamine (DEN, 25 mg/kg). The salsolinol (200 mg/kg) is administered for 6 months through intraperitoneal injection three times per week from the time when the DEN-induced liver cancer mouse model (male) became 7 weeks of age. After the mouse is sacrificed, the experiment is performed. After the experiment is completed, the experimental animals are fasted for 4 hours, sacrificed with CO2 gas, and the blood collected from the heart is heparinized. And after that, centrifuge separation is performed at 3,000 rpm for 15 minutes to separate plasma. AFP (α-Fetoprotein) analysis is measured by enzyme-linked immunosorbent assay (ELISA). The separated plasma is diluted 20 times with a diluted solution, and after that, a 50 μl of standard curve reagent and plasma are inserted into a coated 96-well plate, and after that, the culturing is performed for 2 hours at room temperature. The culture medium is removed, and washing is performed 3 times with 100 μl of wash buffer. After adding 100 μl of prepared AFP conjugate to each well, the culturing is performed for 2 hours at room temperature. The culture medium is removed, and washing is performed 3 times with 100 μl of wash buffer. After adding 100 μl of reaction reagent to each well, the culturing is performed for 30 minutes in a dark place. After adding the same amount of reaction stop reagent to each well, tapping is lightly performed to mix thoroughly. With respect to the degree of reaction, after measuring the absorbance at 450 nm, the concentration of AFP is quantified by using a standard curve of a SpectraMax 190 microplate plate reader (Molecular Devices, LCC. San Jose, Calif.). The liver tissue is separated, the number of tumors is measured, and the degree of tumor formation is illustrated by a picture. After fixing 10% formaldehyde for morphological analysis, a paraffin section slide having a thickness of 4 μm is requested to be manufactured by Notus Co., Ltd. After removing paraffin No. 3 with xylene and re-dehydration in 95% and 70% alcohol, staining is performed by using Mayer's Hematoxylin. A male DEN-induced liver cancer mouse model is prepared by intraperitoneal (IP) administration of DEN 25 mg/kg, and the salsolinol 200 mg/kg is administered intraperitoneally to the model, and an effect of the salsolinol on liver cancer treatment is checked.

Data set [2] concerns SK-Hep1. In words: Cell migration assay (culture-insert gap). Format: cell-based, human. To be noted: 25 μM salsolinol. How it is done: A culture-insert (Ibidi; Martinsried, Germany) is attached to a 24-well plate to make a 500 μm interval, and then the cultured liver cancer cell lines (SK-Hep1) are dispensed so as to have a concentration of 1.5×10^5 cells. And the culturing is performed for 24 hours. After detaching the insert from the plate, each well is treated with the salsolinol so as to have a concentration of 25 μM. After the culturing is performed for 24 hours and for 48 hours, and the sample is photographed by a microscope to check the ability of migrating cells. The SK-Hep1 cells are dispensed into the culture-insert so as to have a concentration of 1.5×10^5 cells, and the culturing is performed for 24 hours. After detaching the insert from the plate, each well is treated with the salsolinol so as to have a concentration of 25 μM. After the culturing is performed for 24 hours and 48 hours, and the sample is photographed by a microscope to check the cell migration ability (refer to FIG. 3). […] When the culturing is performed for 48 hours, a large number of SK-Hep1 cells are migrated, and it is confirmed that the scratch disappears.

Data set [3] concerns normal hepatocytes (NCTC1469). To be noted: NCTC1469, from KR10-2019-0129765; cited from earlier work.
Data set [4] concerns STAT3, pSTAT3, PCNA, 15-PGDH, p53 in SK-Hep1. In words: Western blotting of tumor-related genes in SK-Hep1. The data set is classed as cell-based, human. As to the method: 5×10^5 cells of Human-derived liver cancer cell lines SK-Hep1 and SNU387 are cultured in a 60 mm culture vessel, the cells are lysed, and proteins are separated through electrophoresis. And after that, western blotting analysis is performed by using a specific antibody. After treatment of the SK-Hep1 and the SNU387 with the salsolinol at different times and concentrations, the cells are washed with PBS, and the cells are scraped off with a scraper. The cells are lysed in a lysis buffer for 1 hour, and after that, centrifuge separation is performed at 13,000 rpm for 15 minutes at 4° C., and only the supernatant is extracted. 20 μg of protein contained in the supernatant is electrophoresed on SDS-polyacrylamide gel, and after that, transferred to a PVDF membrane for 2 hours. The sample reacts with antibodies pSTAT3(#9145), STAT3(#9132), PCNA(#2586), 15-PGDH(cayman No. 160615), p53(sc-126), p53(sc-99), pAKT(#9271), AKT(#9272), Annexin A2(#8235), and GAPDH(sc-32233). The protein is detected by using an enhanced chemiluminascence (ECL) detection solution. As a result of the above-described experiment, it is confirmed that the activity of cells in the liver cancer cell lines SK-Hep1 is decreased by the salsolinol, and particularly, the specificity for the liver cancer cell lines is confirmed. In order to check the correlation between the decrease in the activity of cells of the liver cancer cell lines by the salsolinol and the gene expression, the SK-Hep1 which is a liver cancer cell line and the SNU387 which is a liver cancer cell line are cultured, and the samples are treated with 25 μM of salsolinol d for 72 hours. After the treatment, changes in the expression levels of tumor-related genes such as STAT3, pSTAT3, PCNA, 15-PGDH, and p53 are checked (refer to FIG. 4).
(In general: Immunoblotting shows a protein as a band on a membrane.)

The mark [5] stands for this setting: SK-Hep1, 25 μM salsolinol, 72 hours.

In the case of `CC1NCCc2cc(O)c(O)cc21` (stereo not shown) [salsolinol, 6,7-dihydroxy-1-methyl-1,2,3,4-tetrahydroisoquinoline], the “abnormal types of hepatocytes (H&E staining)” value in data set [1] (DEN+SAL liver tissue) was “not observed”. In addition, the “decrease in number of liver cancer tissues compared with DEN model” value in data set [1] (DEN+SAL male mice, salsolinol 200 mg/kg i.p.) is listed as “about 60%”. Also, in data set [1] (DEN+SAL male mice, salsolinol 200 mg/kg i.p. three times per week, 6 months), the “weight of the liver tissue” value is “slightly equal to that of the normal mouse”. The “average number of liver cancer tissues on the liver surface” value in data set [1] (DEN+SAL male mice, salsolinol 200 mg/kg i.p., DEN model about 10) was “four”. Moreover, in data set [1] (DEN+SAL male mice, salsolinol 200 mg/kg i.p., normal mouse 50, DEN model 720 ng/ml), the “plasma AFP level (average)” value came out at 200 ng/mL. Further, the “liver cancer tissue on the liver surface” value in data set [1] (normal mouse administered with salsolinol alone (SAL)) is “no liver cancer tissue is found”. The cell migration ability result in data set [2] (24 hours) is on record as “some cells are migrated, but the scratch portion is clearly distinguished”. The cell migration ability result in data set [2] (48 hours) is listed as “scratch portion does not disappear”. For the same molecule, in data set [3], the PARP-cleavage / apoptosis result was “PARP-cleavage is induced to induce apoptosis”; the “fibrosis-related genes and active oxygen species” value was “increases fibrosis-related genes and active oxygen species”. Besides, in data set [4] (setting [5]), the 15-PGDH expression level entry is given as “increased”, the PCNA expression level entry is on record as “slightly decreased”, the STAT3 expression level entry is on record as “remains constant” and the p53 expression level entry is given as “increased”. The pSTAT3 expression level result in data set [4] (setting [5]) is “decreased”. Also, the “phosphorylation of STAT3 over time” value in data set [4] (male-derived liver cancer cell lines, time course after treatment) is “rapidly increased initially, but it is rapidly decreased after 24 hours”.

These data come from patent US11628164B2, “Composition containing salsolinol for treating liver cancer” (SUNGSHIN WOMEN'S UNIVERSITY R&DB FOUNDATION, priority 2020, dated 2023).
